According to patent US6254853A, “Water soluble pro-drugs of propofol” (Vyrex Corporation, priority 1998, dated 2001):
“Also recorded” adds a separate entry of the source.

Experiments:
colorectal cancer tumors = details: mice; co-administered with 5-fluorouracil or doxorubicin; Chinery et al. 1997; cited from earlier work
[1] = tested on: low density lipoprotein (LDL); experiment: Effect of propofol esters on copper-promoted oxidation of LDL (conjugated dienes); type: biochemical, human; details: 5 μM; 100 μg/ml LDL, 5 μM copper sulfate
Source text: (§1) The following experiment is based on the use of low density lipoprotein (LDL) as an oxidizable substrate. LDL is one of the plasma lipoproteins whose oxidation is thought to contribute to the pathogenesis of atherosclerosis. The copper-promoted, the hydrogen peroxide-/horseradish peroxidase-promoted and the myeloperoxidase-promoted oxidation of LDL are models for the free radical-induced oxidation of LDL that occurs in vivo.
(§2) LDL was isolated from heparinized plasma of normal human donors by ultracentrifugation. Most of the experiments described in this study were performed immediately after isolation. Examples and further details of the experimental procedures may be found in N. Santanam et al. J. Clin Invest. 95(6):2594 (1995) and FEBS Leters, 414:549-551 (1997).
(§3) The formation of conjugated dienes was measured in a spectrophotometer (model DB-3500; SLM-AMINCO, Urbana, Ill.) equipped with a 12 position sample changer. Samples and references were measured continuously for periods of up to several hours. Typically, 100 μg/ml of LDL was incubated in PBS with 1 U horseradish peroxidase (type X, 260 U/mg) in the presence of 50 μM H2 O2. For copper-mediated oxidation, 100 μg/ml LDL was incubated with 5 μM copper sulfate solution.

[2] = In vitro hydrolysis of propofol esters to propofol in human saliva; type: in vitro ADME; details: room temperature, approximate
Experimental: (§4) In vitro hydrolysis of propofol esters in various media
(§5) General procedure: Propofol ester was dissolved in the test medium at room temperature, and samples were removed periodically for analysis. The samples were extracted with hexane, the extracts were evaporated to dryness, and the residues were taken up in methanol. Analysis was by HPLC using methanol solvent through an ODS column and UV detection at 260 nm.
(§6) The approximate half-life for the hydrolysis of propofol hemisuccinate to propofol in various media were as follows: […]

[3] = tested on: low density lipoprotein (LDL); experiment: Effect of propofol esters on hydrogen peroxide/horseradish peroxidase-promoted oxidation of LDL (conjugated dienes); type: biochemical, human; details: 5 μM; 100 μg/ml LDL, 1 U horseradish peroxidase, 50 μM H2O2
Source text: as §1, §2, §3

Water solubility = details: in words
[4] = in words; background knowledge; cited from earlier work
lipid peroxidation = details: Misacchia et al. 1991; cited from earlier work
[5] = literature; cited from earlier work
spinal cord = details: literature; cited from earlier work
[6] = In vitro hydrolysis of propofol esters to propofol in human plasma; type: in vitro ADME; details: room temperature, approximate
Experimental: as §4, §5, §6

[7] = In vitro hydrolysis of propofol esters to propofol in rat whole blood; type: in vitro ADME; details: room temperature, approximate
Experimental: as §4, §5, §6

[8] = tested on: Human low density lipoprotein (huLDL); experiment: Effect of propofol esters on myeloperoxidase-mediated oxidation of LDL (conjugated dienes); type: biochemical; details: concentration not given
Source text: as §1, §2
Human low density lipoprotein (huLDL) in the presence of myeloperoxidase undergoes oxidative modification. The oxidative damage may be measured by spectrophotometric detection of the resulting conjugated dienes (N. Santanam & S. Parthasarathy, J. Clin. Invest, 95(6):2594 (1995)).

[9] = In vivo hydrolysis of propofol hemisuccinate after gavage (blood levels of propofol; observation of the animals); design: species or system male Sprague-Dawley rats; details: rat, two days following dosing
Experimental: At a dosage of 400 mg of propofol hemisuccinate per kg body weight, the blood level of propofol at 4 hrs was about 1 μg/ml.

[10] = In vitro hydrolysis of propofol esters to propofol in albumin; type: in vitro ADME; details: room temperature, approximate
Experimental: as §4, §5, §6

[11] = In vitro hydrolysis of propofol esters to propofol in human whole blood; type: in vitro ADME; details: room temperature, approximate
Experimental: as §4, §5, §6

[12] = In vitro hydrolysis of propofol esters to propofol in water (PBS buffer pH 7.4); type: in vitro ADME; details: room temperature, approximate
Experimental: as §4, §5, §6

S=C(S)N1CCCC1 [pyrrolidine dithiocarbamate (PDTC), pyrrolidine dithiocarbamate]
growth of colorectal cancer tumors (colorectal cancer tumors): inhibited the growth

CC(C)c1cccc(C(C)C)c1OP(=O)(O)O [mono(propofol) phosphate]
effect on copper-promoted oxidation of LDL [1]: not significantly affected | Half-Life to Hydrolysis [2]: about four | effect on oxidation of LDL in the presence of horseradish peroxidase/hydrogen peroxide [3]: not significantly affected | solubility in water (Water solubility): most soluble

CC(C)c1cccc(C(C)C)c1O [propofol, 2,6-diisopropylphenol]
water solubility of propofol [4]: almost completely insoluble in water; also recorded: very low water solubility | effect on copper-promoted oxidation of LDL [1]: almost totally inhibited | effect on oxidation of LDL in the presence of horseradish peroxidase/hydrogen peroxide [3]: almost totally inhibited | inhibition of lipid peroxidation (lipid peroxidation): inhibit lipid peroxidation

CC(C)c1cccc(C(C)C)c1OP(=O)(O)Oc1c(C(C)C)cccc1C(C)C [di(propofol) phosphoric acid ester]
effect on copper-promoted oxidation of LDL [1]: not significantly affected | effect on oxidation of LDL in the presence of horseradish peroxidase/hydrogen peroxide [3]: not significantly affected

Cc1c(C)c2c(c(C)c1O)CCC(C)(CCCC(C)CCCC(C)CCCC(C)C)O2 (stereo not drawn) [Alpha-tocopherol]
uptake into the central nervous system [5]: very slowly | growth of colorectal cancer tumors (colorectal cancer tumors): inhibited the growth | effect on chronic neurological recovery (spinal cord): enhance chronic neurological recovery | effect on post-traumatic spinal cord ischemia (spinal cord): decrease post-traumatic spinal cord ischemia

CC(C)c1cccc(C(C)C)c1OC(=O)CCC(=O)O [propofol hemisuccinate, 2,6-diisopropylphenyl hydrogen succinate]
half-life [6]: ~72 h | half-life [7]: ~2 h | effect on copper-promoted oxidation of LDL [1]: not significantly affected | half-life [2]: ~96 h | effect on oxidation of LDL in the presence of myeloperoxidase [8]: partly inhibited; also recorded: significantly inhibited | condition of the animals through the two day observation period [9]: remained healthy and active | half-life [10]: ~144 h | effect on oxidation of LDL in the presence of horseradish peroxidase/hydrogen peroxide [3]: slightly inhibited | half-life [11]: ~48 h | solubility in water (Water solubility): most soluble | half-life [12]: ~336 h
